# According to a melting point compilation (Tetko et al.; mined from patent text by program, amines drawn as free bases though some values may be those of a salt):
row,SMILES,melting point
1,Cc1c(Cc2ccc(C(C)C)cc2)c2c(c(C)c1NC(=O)CC(C)(C)C)C(c1ccccc1)CO2 (stereo not given),137 to 141 °C
2,NC(=O)c1sc2nccc(OC3CCCCCC3)c2c1N,179 to 180 °C
3,C=C(C)Cc1c(C)c2c(c(C)c1O)CCN2C=O,132 to 134 °C
4,COc1cc(C)cc2nc(S(=O)(=O)Nc3cc(C)cnc3F)nn12,262 to 264 °C
5,COc1ccc(C(=O)Nc2ccccc2)cc1NCc1ccc(O)cc1,188 to 190 °C
6,COCCNC(=O)CC1CN=C(c2cc3cc(Oc4ccc(S(C)(=O)=O)nc4)cc(OC)c3[nH]2)S1 (stereo not given),175 to 176 °C
7,Cc1cc(C)n(C(=O)C(C)NS(=O)(=O)c2ccc(Cl)cc2)n1 (stereo not given),150 °C
8,COc1cccc(Oc2c(Cl)nc(-c3cccs3)nc2NS(=O)(=O)c2ccc(C(C)(C)C)cc2)c1,206 to 207 °C
9,CCc1cccc(C)c1CNc1cc(C(=O)N(C)C)nc2c(CO)c(C)[nH]c12,280 °C
10,CCO/C(C)=C(/C#N)C(N)=S,201 to 204 °C
11,Cc1nc(N2CCN(Cc3ccc(F)cc3)C2=O)sc1C(=O)NCc1ncco1,187 to 189 °C
12,CN(C)c1ccc(CNC(=O)C(Cc2ccccc2)NC(=O)Nc2ccc(C(=N)N)cc2)cc1 (stereo not given),147 °C
13,CCCCc1cc(CCCc2c3c(nn2CCC)c(N)nc2ccccc23)no1,132 to 133 °C
14,Cc1nc2c(n1C)CCCC2=O,98.1 °C
15,CC1=NNC(=O)C1(C)Cl (stereo not given),56 °C
16,COc1cc2c(cc1-c1cccnc1)-c1c(-c3cncs3)c3c(n1CC2)C(=O)N(C(C)(C)C)CCCOC3,200 to 201 °C
17,Nc1nc(-c2c(-c3ccccc3)c3ccccc3[nH]c2=O)cs1,> 220 °C
18,O=Cc1ccc(OCc2ccccc2)c(CCl)n1,72 to 73 °C
19,COc1ccccc1N1CCC(CNCC2COc3cccc(O)c3O2)CC1 (stereo not given),116 to 119 °C
20,Cc1ccc(-c2nc(-c3ccc(C)cc3C)nc(-c3ccc(OCC(=O)OC4CC(C)(C)N(OC5CCCCC5)C(C)(C)C4)cc3O)n2)c(C)c1,105 to 109 °C
21,CCCCC(CC)COC(=O)Nc1ccc(C=C(C#N)C(=O)OCC)cc1 (stereo not given),105 °C
22,C[C@@H](N(CC(=O)O)C(=O)c1ccc(C(F)(F)F)cc1F)[C@](O)(Cn1cncn1)c1ccc(F)cc1F (relative stereo),191 to 192 °C
23,CCCN(C)C(=O)COC1c2ccccc2C(=O)N1c1ccc2ccc(OC)nc2n1 (stereo not given),160 °C
24,Cc1cccc2oc(Nc3ccc(CC(=O)O)cc3)nc12,337 to 339 °C
25,CN(C)CC=Cc1ccc2c(c1)CCN2C(=O)c1ccc(-c2ccccc2)cc1,174 to 176 °C

row,SMILES,melting point
1,COc1cc(OC)nc(CC#N)n1,65 to 67 °C
2,COC(=O)C(NC(=O)c1ccc(Cl)cc1)C(=O)OC,146 to 148 °C
3,Cc1ccc2sc(=O)[nH]c2c1,86 to 88 °C
4,Cc1[nH]cnc1CSCCNc1[nH]cc(CCc2ccccc2)c1[N+](=O)[O-],186 to 187 °C
5,Cc1ccc(C)c(OCCCC(C)(C)C(=O)Nc2ccc(F)cc2F)c1,79 to 80 °C
6,Oc1ccc(Cl)c(Cl)c1OCC1CO1 (stereo not given),92 to 94 °C
7,N#Cc1nc2ccccc2[nH]1,268 °C
8,Cc1oc(-c2ccccc2)nc1COc1ccc(Cn2cc(CCC(=O)O)c(OCc3ccccc3)n2)cc1,108 to 109 °C
9,O=C(Nc1ccc2c(c1)CCN(C(=O)Nc1ccc(OCC(O)CO)cc1Cl)C2)Nc1ccccc1F (stereo not given),164 to 167 °C
10,CC(C)(C)C(NC(=O)c1ccc(I)cc1)Nc1c(Nc2cccnc2)c(=O)c1=O (stereo not given),256 to 257 °C
11,Fc1ccc(Cn2c(NC3CCN(C4CCCN(Cc5ccccc5)C4)CC3)nc3ccccc32)cc1 (stereo not given),175 °C
12,N#Cc1c(Cl)ccc(Cl)c1Cl,117 to 119 °C
13,CN(C)C(=O)Nc1cccc(Cl)c1,138 to 142 °C
14,C=Cc1cc2c(c3ccc(O)cc13)OCc1cc(O)ccc1-2,> 220 °C
15,COC(=S)OC(C(=O)O)c1ccccc1 (stereo not given),86 to 87 °C
16,Cn1c(Br)nc2c([N+](=O)[O-])cc(Br)cc21,235 to 236 °C
17,CCc1n[nH]c(CC)c1Cc1cc(C#N)cc(C#N)c1,141 to 143 °C
18,O=C(O)COc1cccc2c1CCc1sc(Sc3ccc([N+](=O)[O-])cc3[N+](=O)[O-])nc1-2,223 to 226 °C
19,Cc1c(C=O)c2cnnc(NCc3ccccc3)c2n1Cc1ccccc1,171 to 172 °C
20,CC#CCOc1ccc(S(=O)(=O)N(C)c2c(C(=O)OCC)cnc3c2c(C)nn3C)cc1,50 to 52 °C
21,c1ccc2c(CC3CCCCC3)c[nH]c2c1,71 to 73 °C
22,COCCN(C)C(=O)c1cc2c(nc(C)n2C)c2c1CCC1(Cc3ccccc3C1)N2,160 to 161 °C
23,N#Cc1ccc2c(c1)-c1cc(C#N)ccc1OCCO2,195 to 196 °C
24,CCOC(=O)c1c(Cn2cncn2)nc2sc(C)c(C)c2c1-c1ccc2c(c1)OCO2,109 to 110 °C
25,CC(C)(C)NCC(O)COc1ccc(OCC2CC2)cc1 (stereo not given),90 to 92 °C

row,SMILES,melting point
1,CCCCOC(=O)c1ccccc1-c1ccc(Cn2c(CCC)nc(C(C)(C)O)c2C(=O)OCOC(=O)OC(C)C)cc1,85 to 87 °C
2,O=C1c2ccccc2C(=O)N1OCc1ccc2c(c1F)OC(c1ccccc1)(c1ccccc1)O2,177 to 179 °C
3,COc1cc(-n2cnc3cc(-c4ccc(Cl)cc4)sc3c2=O)ccc1OCC1(O)CC(F)(F)C1,198 to 199 °C
4,CC(Oc1ccc(Nc2cnc3cc(Cl)ccc3c2)cc1)C(=O)O (stereo not given),150 °C
5,CSc1ccc(C(=O)Nc2c(Cl)cncc2Cl)cc1OC1CCCC1,157 to 159 °C
6,Cc1ccc(NC(=O)NCCN2CCN=C2c2ccccc2Cl)cc1,108 to 111 °C
7,O=C1N(Cc2cnccn2)c2ccccc2C12COc1cc3c(cc12)OCCO3 (stereo not given),216 to 218 °C
8,CC(=O)c1csc2ccc(OS(=O)(=O)c3ccccc3)cc12,129 to 130 °C
9,CCON1CCC(NC(=O)Cc2c(C)cc(C)cc2C)(C(=O)OC)CC1,131 to 132 °C
10,CC#CC(=O)Nc1ccc(-n2nc(C(F)(F)F)cc2C(F)(F)F)cc1,220 to 221 °C
11,Cc1cc(CCCCCOc2ccc(-c3nc4ccccc4s3)cc2)on1,70.5 to 71.2 °C
12,CCCC(=O)c1cnc2c(OC)cc(O)cc2c1Nc1ccc(O)cc1C,251 to 253 °C
13,CCOC(=O)c1cc2ccccc2n(C(C)C)c1=O,54 to 57 °C
14,CCCCCS(=O)(=O)NC(=O)/C(=C/c1ccc(OCCOC)cc1Oc1ncc(C(F)(F)F)cc1Cl)CC,104 to 106 °C
15,OCC1OC(n2c(Cl)nc3cc(Br)c(Cl)cc32)C(O)C1O (stereo not given),140 to 142 °C
16,NS(=O)(=O)c1cc2sc(C=O)cc2s1,203 to 204 °C
17,O=S(=O)(Nc1cccc2cc(-c3ncc(CO)s3)[nH]c12)c1cccs1,209 to 210 °C
18,COCc1cc(-c2nnc3c4ccccc4c(OCc4ncnn4C)nn23)no1,206 to 208 °C
19,Cc1c(-c2ccccc2)sc2nc(N)[nH]c(=O)c12,356 to 358 °C
20,COc1ccc(C2=CCN(Cc3n[nH]c4ccccc34)CC2)cc1,157 to 159 °C
21,COc1ccc(-c2cn(Cc3ccccc3)c(=O)c3ccccc23)cc1OC,174 to 176 °C
22,COC(=O)c1cccc([N+](=O)[O-])c1CS(N)(=O)=O,119 to 123 °C
23,CCOc1ccc(S(=O)(=O)N2CCN(C)CC2)cc1C(=O)OC,110 to 111 °C
24,C#CC[C@H](c1nc2cc(Cl)ccc2c(=O)n1Nc1ccccc1)N(CCCN)C(=O)c1ccc(C)cc1,130 to 133 °C
25,CC(C)CC(=O)Nc1ccc(-c2ccncc2)cc1,166 to 176 °C

row,SMILES,melting point
1,CC(C)(F)c1cnn2c(-c3ccc(F)c(-c4ccc(F)cc4C#N)c3F)cnc2n1,166 to 169 °C
2,CCOC(=O)NC(=O)CC(=O)NC(=O)OCC,177 to 178 °C
3,CCCCCCCC(c1cc(C)cc(N=Nc2ccc(C)cc2[N+](=O)[O-])c1O)c1cc(C)cc(N=Nc2ccc(C)cc2[N+](=O)[O-])c1O (stereo not given),145 °C
4,CC(C)(C)OC(=O)C(Nc1ccccc1)c1cccc(Br)c1 (racemic),90 °C
5,COC=C(c1cccnc1)C(C)c1ccc(Cl)cc1Cl (stereo not given),67 to 68 °C
6,Cn1cc(C(=O)O)c(=O)c2c3cc(N4CCCC(C)(C)C4)c(F)cc3ncc21,292 to 295 °C
7,CC(C)(O)C[C@@H]1CO[C@](C)([C@H]2CC[C@H]3[C@@H](O)CCC[C@@]32C)C1,67 °C
8,CCCCCCCCCCC1=C(O)C(=O)NC1=O,109 to 111 °C
9,CCN(CC)c1nc(C)nc(SC)c1NC(=O)CBr,173 to 174 °C
10,Cc1cc(NC(c2ccccc2)(c2ccccc2)c2ccccc2)no1,196 to 199 °C
11,CCOC(=O)COc1ccc(C(=O)c2ccccc2O)c(Cl)c1Cl,108 to 110 °C
12,Nc1ncc(S(=O)c2ccc(C(F)(F)F)cn2)s1 (stereo not given),144 to 145 °C
13,CCC(CC)c1ccc(Cl)c2nc3n(c12)CCCCN3c1ccc(N(C)C)cc1OC(F)(F)F,158 to 159 °C
14,COc1ccc(-c2ccc3nnn(Cc4ccc5ncccc5c4)c3n2)cc1,144 to 146 °C
15,CC(C)n1nc(-c2nc(S(C)(=O)=O)c(N)nc2-c2ccccc2)ccc1=O,249 to 251 °C
16,Cc1c(Oc2c(F)cc(C(F)(F)F)cc2Cl)nn(C(=O)OC(C)(C)C)c1C,138 to 139 °C
17,O=S(=O)(NCc1ccccc1)c1ccc2nc(S)sc2c1,214 to 215 °C
18,CS(=O)c1ncc2cc(Cl)c(N)nc2n1 (stereo not given),260 to 262 °C
19,O=C(OC1CCCCCCC1)c1cc2cc(CCl)ccc2oc1=O,169 to 170 °C
20,COc1ccc2cccc(C(=O)C(=O)O)c2c1,99 °C
21,CC(CN=C(O)C(Cl)=C(Cl)C(=O)O)Cc1ccc(C(C)(C)C)cc1 (stereo not given),64 to 65 °C
22,CC(=O)Nc1ccc(S(F)(F)(F)(F)F)cc1,131 to 132 °C
23,Cn1nc(-c2c(Cl)cccc2Cl)nc1-c1ccc(Br)s1,130 to 132 °C
24,CC1COc2c(F)c(F)cc3c(=O)[nH]c(=O)n1c23 (stereo not given),259 to 261 °C
25,OC(c1ccccc1)(c1ccccn1)C1CCN(Cc2ccccc2)CC1 (stereo not given),142 to 143 °C
